Several values for one entry are separate records, joined by “and”; a condition that tells them apart may be missing. Equal values may be shown once.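 In this assay, cells in 96-well plates receive the compound at five concentrations for 48 hours. Endpoints are linearly interpolated between the surrounding concentrations. At the GI50, growth is halved. Definition used: TGI = concentration required for complete inhibition of growth.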
What was measured:
Assay in all cases: inhibition of tumour cell growth, NCI panel, 48 h
[1] = test system: HOP-18 NSCLC
[2] = test system: OVCAR-5 ovarian
[3] = test system: DMS 273 small cell lung
[4] = test system: DMS 114 small cell lung
[5] = test system: IGROV1 ovarian
[6] = test system: SK-MEL-5 melanoma
[7] = test system: LXFL 529 NSCLC
[8] = test system: XF 498 CNS
[9] = test system: HS 578T breast
[10] = test system: MDA-MB-231 breast

`NC(=O)c1ccc2c(c1)-c1nc-2nc2[n-]c(nc3nc(nc4[n-]c(n1)c1ccc(C(N)=O)cc41)-c1ccc(C(N)=O)cc1-3)c1ccc(C(N)=O)cc21.[Co+2]` was tested, and the GI50 [1] was greater than 50 µM, the TGI [1] was greater than 50 µM and the GI50 [2] was greater than 50 µM. It also gave a TGI [2] greater than 50 µM, a GI50 [3] greater than 50 µM and a TGI [3] greater than 50 µM. It also gave a GI50 [4] of 19.6 µM, a TGI [4] greater than 50 µM and a GI50 [5] greater than 50 µM. The TGI [5] was greater than 50 µM, the GI50 [6] was greater than 50 µM and the TGI [6] was greater than 50 µM. For the same molecule, the GI50 [7] was 35.9 µM and the TGI [7] was greater than 50 µM.

`CN(C)CCNC(=O)c1cccc2c1nc(-c1ccc(F)cc1)c1ccccc12` showed a TGI [1] of 27.4 µM, a TGI [2] of 16.7 µM and a TGI [3] of 13 µM. For the same molecule, the TGI [4] was 19.2 µM, the TGI [5] was 16.8 µM and the TGI [6] was 11 µM.

For `CC(C)N(C(=O)C12C3C4C1C1C2C3C41C#N)C(C)C` (configuration not stated), the TGI [8] was greater than 100 µM, the TGI [1] was greater than 100 µM and the TGI [2] was greater than 100 µM. It also gave a TGI [3] greater than 100 µM, a TGI [4] greater than 100 µM and a TGI [5] greater than 100 µM. It also gave a TGI [6] greater than 100 µM and a TGI [7] greater than 100 µM.

For `Cc1ccc(C(=O)CC2(O)C(=O)Nc3c(C)cc(Cl)cc32)cc1` (configuration not stated), the TGI [8] was greater than 100 µM, the TGI [1] was greater than 100 µM and the TGI [2] was greater than 100 µM. It also gave a TGI [3] greater than 100 µM, a TGI [4] greater than 100 µM and a TGI [6] greater than 100 µM. The TGI [7] was greater than 100 µM.

For `COC(=O)C(=O)Cc1nc2ccccc2s1`, the TGI [1] was greater than 100 µM, the TGI [2] was greater than 100 µM and the TGI [3] was greater than 100 µM. It also gave a TGI [4] greater than 100 µM, a TGI [5] greater than 100 µM and a TGI [6] greater than 100 µM. It also gave a TGI [7] greater than 100 µM.

`COC(=O)CCSC(=O)Nc1ccc(N=Nc2ccccc2)cc1` was tested, and the TGI [8] was greater than 100 µM, the TGI [1] was greater than 100 µM and the TGI [2] was greater than 100 µM. For the same molecule, the TGI [3] was greater than 100 µM, the TGI [4] was greater than 100 µM and the TGI [5] was greater than 100 µM. For the same molecule, the TGI [6] was greater than 100 µM and the TGI [7] was greater than 100 µM.

Work on `O=C(c1ccc(O)cc1O)C1C(c2ccc(O)cc2)OC(c2ccc(O)cc2)C1C(=O)c1ccc(O)cc1O` (configuration not stated) yielded a TGI [8] of 32.3 µM, a TGI [2] of 29.7 µM and a TGI [3] of 29.5 µM. For the same molecule, the TGI [6] was 29.6 µM and the TGI [7] was 34.7 µM.

`COc1ccc(N2C(=O)c3c(c4[nH]c5ccccc5c4c4ccc(C(C)(C)C)cc34)C2=O)cc1` gave a TGI [8] of 49.8 µM, a TGI [1] greater than 100 µM and a TGI [2] greater than 100 µM. It also gave a TGI [3] greater than 100 µM, a TGI [4] greater than 100 µM and a TGI [5] greater than 100 µM. For the same molecule, the TGI [6] was greater than 100 µM and the TGI [7] was greater than 100 µM.

For `COC1=C(N)C(=O)c2nc(-c3nc(C(=O)O)c(C)c(-c4ccc(OC)c(OC)c4O)c3N)ccc2C1=O`, the TGI [8] was 0.0179 µM, the TGI [1] was 0.0395 µM and the GI50 [2] was 0.00332 µM and 0.00352 µM and 0.0143 µM. For the same molecule, the TGI [3] was 0.0194 µM, the TGI [4] was 0.0118 µM and the GI50 [5] was 0.00237 µM and 0.0223 µM and 0.0183 µM. The TGI [5] was 0.0196 µM and 0.125 µM and 0.0589 µM, the TGI [9] was 0.0412 µM and the GI50 [6] was 0.00116 µM and 0.0104 µM. It also gave a TGI [7] of 0.0206 µM.

`CCOC1=C2N=C(C(CC)c3ccccc3F)N=C2C(=O)c2ccccc21` (configuration not stated) was tested, and the TGI [3] was greater than 100 µM, the TGI [4] was greater than 100 µM and the TGI [7] was greater than 100 µM.

For `Cc1ccc(NC(=O)CCc2nc(=S)[nH][nH]2)cc1`, the TGI [8] was greater than 100 µM, the TGI [1] was greater than 100 µM and the TGI [2] was greater than 100 µM. For the same molecule, the TGI [3] was greater than 100 µM, the TGI [4] was greater than 100 µM and the TGI [5] was greater than 100 µM. It also gave a TGI [6] greater than 100 µM and a TGI [7] greater than 100 µM.

`COC(=O)NC1C(C)OC(OC2C/C=C(/C)C3C=CC4C(OC5CC(OC6CCC(OC7CC(O)C(OC8CCC(O)C(C)O8)C(C)O7)C(C)O6)C(OC(C)=O)C(C)O5)C(C)CC(C)C4C3(C)/C(O)=C3/C(=O)OC4(CC(C=O)=CC(O)C4/C=C\2C)C3=O)CC1(C)[N+](=O)[O-]` (configuration not stated) was tested, and the GI50 [8] was 0.385 µM, the TGI [8] was 0.5 µM and 2.06 µM and the TGI [1] was 14.5 µM and 3.62 µM. For the same molecule, the GI50 [2] was 1.14 µM, the TGI [2] was 4.71 µM and 2.55 µM and the GI50 [3] was 0.414 µM. For the same molecule, the TGI [3] was 3.73 µM and 3.26 µM, the GI50 [4] was 0.19 µM and the TGI [4] was 1.76 µM and 0.494 µM. The GI50 [5] was 1.47 µM, the TGI [5] was 8.43 µM and 3.15 µM and the TGI [10] was 3.49 µM. For the same molecule, the TGI [9] was 3.76 µM, the GI50 [6] was 0.2 µM and the TGI [6] was 1.95 µM and 0.511 µM. It also gave a TGI [7] of 1.97 µM.

With `CCOC(=O)C(C)(NC(=O)c1ccc(NCc2ccc3nc(NC(=O)c4ccccc4)nc(NC(=O)c4ccccc4)c3c2)cc1)C(=O)OCC` the TGI [1] was greater than 100 µM, the TGI [2] was greater than 100 µM and the TGI [3] was 27.5 µM. The TGI [4] was 42 µM, the TGI [5] was 63.3 µM and the TGI [6] was 22.7 µM.

In the case of `COc1cc2ccc3c4ccccc4cnc3c2cc1OC`, the TGI [1] is reported as greater than 100 µM, the TGI [2] is reported as greater than 100 µM and the TGI [5] is reported as greater than 100 µM. It also gave a TGI [6] greater than 100 µM and a TGI [7] greater than 100 µM.

`Nc1ccc2n[se]nc2c1` was tested, and the TGI [8] was greater than 100 µM, the TGI [1] was greater than 100 µM and the TGI [2] was greater than 100 µM. The TGI [3] was greater than 100 µM, the TGI [4] was greater than 100 µM and the TGI [5] was greater than 100 µM. For the same molecule, the TGI [6] was greater than 100 µM and the TGI [7] was greater than 100 µM.

`CC(=O)C1CCN(c2ccccc2)C1` (configuration not stated) was tested, and the TGI [8] was greater than 100 µM, the TGI [2] was greater than 100 µM and the TGI [3] was greater than 100 µM. For the same molecule, the TGI [4] was greater than 100 µM, the TGI [5] was greater than 100 µM and the TGI [6] was greater than 100 µM.

`COC1C2C[C@@H](O)CCC2C(C(=O)OCCl)C[C@H]1O` (some centres not stated) showed a TGI [1] greater than 100 µM, a TGI [3] greater than 100 µM and a TGI [4] greater than 100 µM. For the same molecule, the TGI [5] was greater than 100 µM, the TGI [6] was greater than 100 µM and the TGI [7] was greater than 100 µM.

`NC1NC=NC2C1N=CN2C1OC(CO)C2[O][Sn][O]C21` (configuration not stated) was tested, and the GI50 [8] was 1.15 µM, the TGI [8] was 52.7 µM and the GI50 [1] was greater than 100 µM. The TGI [1] was greater than 100 µM, the GI50 [2] was greater than 100 µM and the TGI [2] was greater than 100 µM. The GI50 [3] was greater than 100 µM, the TGI [3] was greater than 100 µM and the GI50 [4] was greater than 100 µM. For the same molecule, the TGI [4] was greater than 100 µM, the GI50 [5] was greater than 100 µM and the TGI [5] was greater than 100 µM. For the same molecule, the GI50 [6] was greater than 100 µM, the TGI [6] was greater than 100 µM and the GI50 [7] was greater than 100 µM. For the same molecule, the TGI [7] was greater than 100 µM.

In the case of `O=C1/C(=C/c2ccc(Cl)c(Cl)c2)CN(C(=O)C(Cl)Cl)C/C1=C\c1ccc(Cl)c(Cl)c1`, the GI50 [2] is reported as 0.204 µM, the TGI [2] is reported as 0.545 µM and the GI50 [5] is reported as 0.103 µM. For the same molecule, the TGI [5] was 0.306 µM, the GI50 [10] was 0.237 µM and the TGI [10] was 1.16 µM. For the same molecule, the GI50 [9] was 0.355 µM, the TGI [9] was 3.79 µM and the GI50 [6] was 0.196 µM. The TGI [6] was 0.418 µM.
